Source: patent publication US20220388972A1, “CHROMAN-4-ONE DERIVATIVES FOR THE TREATMENT AND PROPHYLAXIS OF HEPATITIS B VIRUS INFECTION” (Hoffmann-La Roche Inc., priority 2018, published 2022)

Tests used:
[1] = test system: HBV (extracellular HBsAg) in primary human hepatocytes; assay: Cryopreserved primary human hepatocytes (PHH) HBV infection assay, HBsAg; type: cell-based; settings: Hepatitis B virus, Hepatocyte, 216 h, HBV-infected cryopreserved PHH, 9 days post-compound treatment, CLIA
Protocol: This assay is used to confirm the anti-HBV effect of the compounds in HBV PHH infection assay. Cryopreserved PHH (BioreclamationIVT, Lot YJM) was thawed at 37° C. and gently transferred into pre-warmed InVitroGRO HT medium (BioreclamationIVT, Cat. S03317).
The mixture was centrifuged at 70 relative centrifugal force (RCF) for 3 minutes at RT, and the supernatant was discarded. Pre-warmed InVitroGRO CP medium (BioreclamationIVT, Cat #S03316) was added to the cell pellet to gently re-suspend cells. The cells were seeded at the density of 5.8×10^4 cells per well to collagen I coated 96-well plate (Gibco, Cat. A1142803) with the InVitroGRO CP medium. All plates were incubated at 37° C. with 5% CO2 and 85% humidity.
At 20 hours after plating, the medium was changed to PHH culture medium (Dulbecco's Modified Eagle Medium (DMEM)/F12 (1:1) (Gibco, Cat. 11320-033), 10% fetal bovine serum (Gibco Cat. 10099141), 100 U/mL penicillin, 100 μg/mL streptomycin (Gibco, Cat. 151401-122), 5 ng/mL human epidermal growth factor (Invitrogen Cat. PHG0311L), 20 ng/mL dexamethasone (Sigma, Cat. D4902) and 250 ng/mL human recombinant insulin (Gibco, Cat. 12585-014)). And the cells were incubated at 37° C. with 5% CO2 and 85% humidity for 4 hours. The medium was then changed to pre-warmed PHH culture medium containing 4% polyethylene glycol (PEG) MW8000 (Sigma, Cat. P1458-50 ML) and 1% DMSO (Sigma, Cat. D2650). 5.8×10^6 genomic equivalents of HBV were added into the medium.
At 24 hours' post-infection, the cells were gently washed with PBS and refreshed with PHH culture medium supplemented with 1% DMSO, and 0.25 mg/mL Matrix gel (Corning, Cat. 356237) at 200 μL per well. All plates were immediately placed in at 37° C. CO2 incubator.
24 hours later, serial dilutions of compounds made with DMSO were further diluted with the same culture medium (PHH culture medium supplemented with 1% DMSO and 0.25 mg/mL Matrix gel as described above) before they were added to the cells to reach desired final compound concentrations and 1% DMSO concentration. The medium containing the compounds were refreshed every three days.
At 9 days' post-compound treatment, extracellular HBsAg level were measured with Chemiluminescence Immuno Assay (CLIA) kit (Autobio, HBsAg Quantitative CLIA).
HBsAg IC50 and HBV DNA IC50 values were derived from the dose-response curve using 4 parameters logistic curve fit method. The compounds of formula (I) have HBsAg IC50<20 μM, particularly <1 μM; and HBV DNA IC50<50 μM.

[2] = test system: HBV cccDNA (HBeAg as surrogate marker) in HepDES19 cells; assay: Engineered HepDES19 primary screen assay (HBeAg as surrogate marker for cccDNA); type: cell-based; settings: Hepatitis B virus, HepDES19, 120 h
Source text: The assay was employed to screen for cccDNA inhibitors. HepDES19 is a cccDNA-producing cell line. In this cell line, HBeAg in the cell culture supernatant as surrogate marker, as HBeAg production depends on cccDNA level and activity. HepDES19 is an engineered cell line which contains a 1.1 unit length HBV genome, and pgRNA transcription from the transgene is controlled by Tetracycline (Tet). In the absence of Tet, pgRNA transcription will be induced, but HBV e antigen (HBeAg) could not be produced from this pgRNA due to very short leader sequence before the HBeAg start codon and the start codon is disrupted. Only after cccDNA is formed, the missing leader sequence and start codon mutation would be restored from the 3′-terminal redundancy of pgRNA, and then HBeAg could be synthesized. Therefore, HBeAg could be used as a surrogate marker for cccDNA (Zhou, T. et al., Antiviral Res. (2006), 72 (2), 116-124; Guo, H. et al., J. Virol. (2007), 81 (22), 12472-12484).
HepDES19 cells were seeded at 2×10^6 cells per T150 flask and cultured with the culture medium (Dulbecco's Modified Eagle Medium: Nutrient Mixture F-12 [DMEM-F12, Gibco Cat. 11320-82], 10% Fetal Bovine Serum [FBS, Clontech Cat. 631101], 0.1 mM Non-Essential Amino Acids Solution [NEAA, Gibco Cat. 11140-050], 50 μg/mL Penicillin-Streptomycin [PS, Invitrogen Cat. 15140-163], 500 μg/mL Geneticin [G418, Invitrogen Cat. 10131-027]) containing 3 μg/mL Tet (Sigma, Cat. 87128) for 5 days. Cells were then seeded at 4×10^6 cells per T150 in the same culture medium as described above in the absence of Tet for 8 days. Cells were then harvested and frozen at density of 2×10^6 cells per mL. For compound testing, the frozen cells were thawed and seeded into 96-well plates at a density of 6×10^4 cells per well. At 24 hours after seeding, half log serial dilutions of compounds made with Dimethyl sulfoxide (DMSO, Sigma, Cat. D2650) were further diluted with the same culture medium as described above before they were added to the cells to reach desired final compound concentrations and 1% DMSO concentration. Plates were then incubated at 37° C. for another 5 days before measurement of HBeAg level and cell viability. Intracellular HBeAg level were measured with enzyme-linked immunosorbent assay (ELISA) kit (Shanghai Kehua Diagnostic Medical Products Co., Ltd). Cell viability was assessed using Cell Counting Kit-8 (DonJindo, Cat. CK04-20). IC50 values were derived from the dose-response curve using 4 parameters logistic curve fit method.
The compounds of the present invention were tested for their capacity to inhibit extracellular HBeAg level as described herein.

## O=C(O)CCOc1cc(OC(F)(F)F)ccc1C1CC(=O)c2cccc(Cl)c2O1 (centres unmarked) [Example 13, 3-[2-(8-chloro-4-oxo-chroman-2-yl)-5-(trifluoromethoxy)phenoxy]propanoic Acid]
[1]
  IC50: 6.86 µM
[2]
  IC50: 390 nM

## O=C(O)CCOc1cc(C(F)(F)F)ccc1C1CC(=O)c2ccc(F)c(Cl)c2O1 (centres unmarked) [Example 2, 3-[2-(8-chloro-7-fluoro-4-oxo-chroman-2-yl)-5-(trifluoromethyl)phenoxy]propanoic Acid]
[1]
  IC50: 4.41 µM
[2]
  IC50: 1970 nM

## COc1cc(C2CC(=O)c3cccc(Cl)c3O2)c(OCCC(=O)O)cc1C(F)(F)F (centres unmarked) [Example 11, 3-[2-(8-chloro-4-oxo-chroman-2-yl)-4-methoxy-5-(trifluoromethyl)phenoxy]propanoic Acid]
[1]
  IC50: 8.34 µM
[2]
  IC50: 5140 nM

## O=C(O)CCOc1cc(C(F)(F)F)ccc1C1CC(=O)c2cc(F)cc(Cl)c2O1 (centres unmarked) [Example 3, 3-[2-(8-chloro-6-fluoro-4-oxo-chroman-2-yl)-5-(trifluoromethyl)phenoxy]propanoic Acid]
[1]
  IC50: 11.2 µM
[2]
  IC50: 5590 nM

## O=C(O)CCOc1cc(C(F)(F)F)ccc1C1CC(=O)c2cccc(Cl)c2O1 (centres unmarked) [Example 1, 3-[2-(8-chloro-4-oxo-chroman-2-yl)-5-(trifluoromethyl)phenoxy]propanoic Acid]
[1]
  IC50: 5.31 µM
[2]
  IC50: 730 nM

## O=C(O)CCOc1cc(OC(F)(F)F)c(Br)cc1C1CC(=O)c2cccc(Cl)c2O1 (centres unmarked) [Example 15, 3-[4-bromo-2-(8-chloro-4-oxo-chroman-2-yl)-5-(trifluoromethoxy)phenoxy]propanoic Acid]
[2]
  IC50: 1500 nM
